Source: patent publication US5741669A, “Insecticidally effective peptides” (FMC Corporation, priority 1995, dated 1998)

B1: NPS-373 (protein)
chain: MKLQLMICLVLLPCFFCEPDEICRARMTNKEFTYKSNVCNGCGDQVAACEAECFRNDVYTACHEAQKG

How the values were obtained:
[1] = tested on: tobacco budworm, Heliothis virescens (TBW); test: Injection bioassay of whole venom and purified toxins in TBW larvae; type: in vivo; conditions: for LD50: H. virescens (TBW), log-probit analysis
Description: The insects tested were last instar, laboratory reared larvae of the tobacco budworm, Heliothis virescens (TBW); the beet armyworm, Spodoptera exigua (BAW); the cabbage looper,Trichoplusia ni (CL); the corn earworm, Heliothis (Helicoverpa) zea (CEW); the fall armyworm, Spodoptera frugiperda (FAW); the soybean looper, Pseudoplusia includens (SBL); the European corn borer, Ostrinia nubilalis (ECB); and the diamondback moth, Plutella xylostella (DBM). Adult house flies, Musca domestica (HF) and adult Southern corn rootworm beetles, Diabrotica undecimpunctata (SRC) were also tested. The first six species (TBW, BAW, CL, CEW, FAW, and SBL) are in the family Noctuidae of the order Lepidoptera. O. nubilalis and P. xylostella are lepidopterans in the families Pyralidae and Plutellidae, respectively. M. domestica and D. undecimpunctata are in the orders Diptera and Coleoptera, respectively. All species tested are important pests in crop production except M. domestica which is a nuisance pest in agricultural and urban settings. All samples, whether whole venom or venom fractions, were prepared in filter-sterilized physiological saline, pH 6.5. Samples were administered by injection into the hemocoel at or near the lateral midline of the fourth abdominal segment; the needle was inserted at a shallow angle to avoid injury to internal organs. Whole venom doses were calculated in terms of WVE. One WVE is the amount of any material which is normally present in one microliter of whole milked venom. Doses of components from early fractionations were also calculated in terms of WVE; doses of purified toxins were calculated from ultraviolet absorbances at 280 nm. Scopes, Anal. Biochem., 59:277 (1974). Control insects were given an equivalent volume of buffered saline solution.
Full dose-response assays were carried out in TBW (n=6), BAW (n=6), CL (n=6) and SCR (n=5). Other species were challenged with one or both toxins in a two-dose assay for purposes of estimating the toxins' activities in a variety of insects. LD50 values were determined by log-probit analysis basic program for microcomputer. Raymond, Set. Ent. med et Parasitol., 22:117 (1985). The insecticidal Tegenaria toxins generally have quite steep dose-response curves; frequently there is less than a 10-fold difference between a 100% lethal dose and a dose causing no mortality. Because probit analysis requires two responses that are neither zero nor 100 percent, […] values in several cases had to be estimated rather than calculated directly. In every case, however, there was an obvious and statistically significant dose response.

[2] = tested on: cabbage looper, Trichoplusia ni (CL); test: Injection bioassay of whole venom and purified toxins in CL larvae; type: in vivo; conditions: T. ni (CL), log-probit analysis
Description: (§1) The insects tested were last instar, laboratory reared larvae of the tobacco budworm, Heliothis virescens (TBW); the beet armyworm, Spodoptera exigua (BAW); the cabbage looper,Trichoplusia ni (CL); the corn earworm, Heliothis (Helicoverpa) zea (CEW); the fall armyworm, Spodoptera frugiperda (FAW); the soybean looper, Pseudoplusia includens (SBL); the European corn borer, Ostrinia nubilalis (ECB); and the diamondback moth, Plutella xylostella (DBM). Adult house flies, Musca domestica (HF) and adult Southern corn rootworm beetles, Diabrotica undecimpunctata (SRC) were also tested. The first six species (TBW, BAW, CL, CEW, FAW, and SBL) are in the family Noctuidae of the order Lepidoptera. O. nubilalis and P. xylostella are lepidopterans in the families Pyralidae and Plutellidae, respectively. […] Whole venom doses were calculated in terms of WVE. […] Doses of components from early fractionations were also calculated in terms of WVE; doses of purified toxins were calculated from ultraviolet absorbances at 280 nm. […]
(§2) Full dose-response assays were carried out in TBW (n=6), BAW (n=6), CL (n=6) and SCR (n=5). […] LD50 values were determined by log-probit analysis basic program for microcomputer. […] Because probit analysis requires two responses that are neither zero nor 100 percent, […] values in several cases had to be estimated rather than calculated directly. […]

[3] = tested on: beet armyworm, Spodoptera exigua (BAW); test: Injection bioassay of whole venom and purified toxins in BAW larvae; type: in vivo; conditions: S. exigua (BAW), estimate based on 50% mortality at this dose, all other responses 0% or 100%
Description: as §1, §2

[4] = tested on: Southern corn rootworm beetles, Diabrotica undecimpunctata (SCR); test: Injection bioassay of toxins in adult Southern corn rootworm beetles; type: in vivo; conditions: D. undecimpunctata (SCR), NPS-326 value estimated (highest dose 100% mortality, rest none)
Description: as §1, §2

[5] = tested on: European corn borer, Ostrinia nubilalis (ECB); test: Two-dose injection assay of toxins in ECB larvae; type: in vivo
Description: as §1, §2

[6] = tested on: fall armyworm, Spodoptera frugiperda (FAW); test: Two-dose injection assay of toxins in FAW larvae; type: in vivo
Description: as §1, §2

[7] = tested on: corn earworm, Heliothis (Helicoverpa) zea (CEW); test: Two-dose injection assay of toxins in CEW larvae; type: in vivo
Description: as §1, §2

[8] = tested on: soybean looper, Pseudoplusia includens (SBL); test: Two-dose injection assay of toxins in SBL larvae; type: in vivo
Description: as §1, §2

[9] = tested on: diamondback moth, Plutella xylostella (DBM); test: Injection assay of toxin in DBM larvae; type: in vivo
Description: as §1, §2

[10] = tested on: male Swiss-Webster mice; test: Mammalian toxicity test by injection in mice; type: in vivo; conditions: 30 μg, male Swiss-Webster mice (~30 gm)
Experimental: (§3) Injection of 30 μg of NPS-326 into the cerebral ventricles (n=3) or peritoneum (n=2) of male Swiss-Webster mice (~30 gm) had no effect. The effects of NPS-331 in mammalian systems were further tested by in vitro rat brain slice electrophysiology. […] The assay is capable of detecting a variety of effects on various mammalian ion channels and neurotransmitter receptors (Dunwiddie, in Electrophysiological Techniques in Pharmacology, Alan R. Liss, Inc., New York (1986), pp. 65-90).

[11] = tested on: house flies, Musca domestica (HF); test: Injection bioassay of toxins in adult house flies; type: in vivo; conditions: M. domestica (HF), estimate from two-dose assay (100% and 30% mortality; control 10%)
Description: as §1, §2

[12] = tested on: rat hippocampal preparation, the Schaffer collateral-CA 1 pyramidal cell synapse; test: In vitro rat brain slice electrophysiology; type: cell-based; conditions: applied at 1 μm
Experimental: as §3

Molecule	LD50 [1] [nmol/gm]	approximate LD50 ([1]; TBW, venom-derived toxin) [µg/g]	LD50 [2] [nmol/gm]	LD50 [3] [nmol/gm]	LD50 [4] [nmol/gm]	estimated LD50 [5] [nmol/gm]	estimated LD50 [6] [nmol/gm]	estimated LD50 [7] [nmol/gm]	estimated LD50 [8] [nmol/gm]	treated larvae developing tremors, spasms and convulsions ([9]; 1.1 nmol/gm, within 24 hours) [%]	estimated LD50 ([9]; DBM larvae) [nmol/gm]	effect of injection into the peritoneum ([10]; n=2)	effect of injection into the cerebral ventricles ([10]; n=3)	LD50 [11] [nmol/gm]	effect on evoked synaptic responses [12]	treated larvae paralyzed ([1]; 7.7 μg/g, TBW, n=6) [%]
NPS-326 (EPDEICRARMTHKEFNYKSNVCNGCGDQVAACEAECFRNDVYTACHEAQK)	0.89	~5.7	0.78	~0.88	~2.0	1.1	5.3	0.8	1.55	90	< 1.1	no effect	no effect			
NPS-331 (EPDEICRARMTNKEFTYKSNVCNNCGDQVAACEAECFRNDVYTACHEAQK)	2.6		0.22	~0.29	0.57	0.64	1.84	1	1.05					~0.7	without effect	
B1																50
